Laboratory results as given in patent US20260193264A1, “BENZOYPARAZINE PYRAZINES AND THEIR USES” (FOGHORN THERAPEUTICS INC., priority 2022, published 2026).

Tests used:
[1] = target: T1, HiBiT-BRM fusion protein in stable HeLa cell line (Homo sapiens, UniProt P51531); test: HiBiT-BRM cell-based degradation assay (Nano-Glo HiBiT Lytic Detection, 24 h); design: DC50: scale not given here; conditions: HeLa HiBiT-BRM cells; for DC50: read-out: BRM HiBit Degradation IC50; for BRM HiBit Degradation Maximum (%): top dose 30 μM
T1 construct: expressed in transfected cells
T1 sequence (P51531 whole entry, the tested form may be a part): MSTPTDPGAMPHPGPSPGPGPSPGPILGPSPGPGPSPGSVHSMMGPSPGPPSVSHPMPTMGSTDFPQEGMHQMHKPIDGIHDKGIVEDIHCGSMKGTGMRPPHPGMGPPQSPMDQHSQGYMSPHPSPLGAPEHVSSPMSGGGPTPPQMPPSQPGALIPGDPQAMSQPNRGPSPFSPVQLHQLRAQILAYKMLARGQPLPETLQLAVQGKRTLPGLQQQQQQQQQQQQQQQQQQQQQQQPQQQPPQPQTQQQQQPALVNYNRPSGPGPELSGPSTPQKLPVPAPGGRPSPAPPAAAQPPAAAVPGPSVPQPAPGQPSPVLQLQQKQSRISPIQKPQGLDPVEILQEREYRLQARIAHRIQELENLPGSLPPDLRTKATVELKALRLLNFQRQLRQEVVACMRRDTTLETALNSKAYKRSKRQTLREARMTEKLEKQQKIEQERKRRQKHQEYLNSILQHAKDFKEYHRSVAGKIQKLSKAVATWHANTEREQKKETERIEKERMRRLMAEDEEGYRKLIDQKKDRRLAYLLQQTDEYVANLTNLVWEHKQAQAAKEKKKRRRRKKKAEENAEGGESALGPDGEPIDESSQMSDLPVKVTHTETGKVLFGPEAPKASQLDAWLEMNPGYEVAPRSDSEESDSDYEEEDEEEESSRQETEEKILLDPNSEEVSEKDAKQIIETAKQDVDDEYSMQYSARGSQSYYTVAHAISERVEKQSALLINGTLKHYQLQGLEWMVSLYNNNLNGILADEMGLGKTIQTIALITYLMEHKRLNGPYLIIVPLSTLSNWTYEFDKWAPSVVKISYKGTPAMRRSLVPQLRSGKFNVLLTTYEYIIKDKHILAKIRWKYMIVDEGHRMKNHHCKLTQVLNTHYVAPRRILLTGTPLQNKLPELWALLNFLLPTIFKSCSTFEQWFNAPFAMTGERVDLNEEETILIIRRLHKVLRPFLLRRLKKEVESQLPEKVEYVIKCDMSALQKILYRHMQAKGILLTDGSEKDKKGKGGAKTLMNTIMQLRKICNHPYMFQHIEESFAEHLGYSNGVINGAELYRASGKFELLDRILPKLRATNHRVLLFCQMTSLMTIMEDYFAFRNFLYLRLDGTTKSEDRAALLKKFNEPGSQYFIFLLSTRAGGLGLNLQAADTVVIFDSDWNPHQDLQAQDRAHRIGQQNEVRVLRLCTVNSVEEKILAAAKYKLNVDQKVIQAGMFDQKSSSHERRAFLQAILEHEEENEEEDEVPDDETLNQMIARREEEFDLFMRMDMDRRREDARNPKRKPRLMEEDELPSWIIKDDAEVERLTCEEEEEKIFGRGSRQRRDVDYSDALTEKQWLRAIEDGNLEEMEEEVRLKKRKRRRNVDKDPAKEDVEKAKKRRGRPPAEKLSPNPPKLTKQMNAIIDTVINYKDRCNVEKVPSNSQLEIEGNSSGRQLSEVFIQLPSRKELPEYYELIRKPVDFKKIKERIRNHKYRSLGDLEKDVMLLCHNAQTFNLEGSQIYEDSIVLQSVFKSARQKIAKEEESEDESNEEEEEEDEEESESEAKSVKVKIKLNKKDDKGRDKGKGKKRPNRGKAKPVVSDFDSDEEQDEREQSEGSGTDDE
Outline: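 HiBiT-tagged BRM levels in a stable HeLa line are measured after one day of compound treatment (up to 30 μM final, duplicate 10-point curves) by adding LgBiT lytic reagent and reading bioluminescence; values are expressed relative to vehicle and a 2 μM degrader control.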

[2] = target: T2, HiBit-BRG1 fusion protein in stable HeLa cell line expressing HiBit-BRG1 and LgBit (Homo sapiens, UniProt P51532); test: HiBiT-BRG1 cell-based degradation assay (Nano-Glo HiBiT, 24 h); conditions: HeLa HiBit-BRG1/LgBit cells; for DC50: read-out: BRMG1 HiBit Degradation IC50; for Dmax: top dose 30 μM, read-out: BRG1 HiBit Degradation Maximum (%)
T2 construct: expressed in transfected cells
T2 sequence (P51532 whole entry, the tested form may be a part): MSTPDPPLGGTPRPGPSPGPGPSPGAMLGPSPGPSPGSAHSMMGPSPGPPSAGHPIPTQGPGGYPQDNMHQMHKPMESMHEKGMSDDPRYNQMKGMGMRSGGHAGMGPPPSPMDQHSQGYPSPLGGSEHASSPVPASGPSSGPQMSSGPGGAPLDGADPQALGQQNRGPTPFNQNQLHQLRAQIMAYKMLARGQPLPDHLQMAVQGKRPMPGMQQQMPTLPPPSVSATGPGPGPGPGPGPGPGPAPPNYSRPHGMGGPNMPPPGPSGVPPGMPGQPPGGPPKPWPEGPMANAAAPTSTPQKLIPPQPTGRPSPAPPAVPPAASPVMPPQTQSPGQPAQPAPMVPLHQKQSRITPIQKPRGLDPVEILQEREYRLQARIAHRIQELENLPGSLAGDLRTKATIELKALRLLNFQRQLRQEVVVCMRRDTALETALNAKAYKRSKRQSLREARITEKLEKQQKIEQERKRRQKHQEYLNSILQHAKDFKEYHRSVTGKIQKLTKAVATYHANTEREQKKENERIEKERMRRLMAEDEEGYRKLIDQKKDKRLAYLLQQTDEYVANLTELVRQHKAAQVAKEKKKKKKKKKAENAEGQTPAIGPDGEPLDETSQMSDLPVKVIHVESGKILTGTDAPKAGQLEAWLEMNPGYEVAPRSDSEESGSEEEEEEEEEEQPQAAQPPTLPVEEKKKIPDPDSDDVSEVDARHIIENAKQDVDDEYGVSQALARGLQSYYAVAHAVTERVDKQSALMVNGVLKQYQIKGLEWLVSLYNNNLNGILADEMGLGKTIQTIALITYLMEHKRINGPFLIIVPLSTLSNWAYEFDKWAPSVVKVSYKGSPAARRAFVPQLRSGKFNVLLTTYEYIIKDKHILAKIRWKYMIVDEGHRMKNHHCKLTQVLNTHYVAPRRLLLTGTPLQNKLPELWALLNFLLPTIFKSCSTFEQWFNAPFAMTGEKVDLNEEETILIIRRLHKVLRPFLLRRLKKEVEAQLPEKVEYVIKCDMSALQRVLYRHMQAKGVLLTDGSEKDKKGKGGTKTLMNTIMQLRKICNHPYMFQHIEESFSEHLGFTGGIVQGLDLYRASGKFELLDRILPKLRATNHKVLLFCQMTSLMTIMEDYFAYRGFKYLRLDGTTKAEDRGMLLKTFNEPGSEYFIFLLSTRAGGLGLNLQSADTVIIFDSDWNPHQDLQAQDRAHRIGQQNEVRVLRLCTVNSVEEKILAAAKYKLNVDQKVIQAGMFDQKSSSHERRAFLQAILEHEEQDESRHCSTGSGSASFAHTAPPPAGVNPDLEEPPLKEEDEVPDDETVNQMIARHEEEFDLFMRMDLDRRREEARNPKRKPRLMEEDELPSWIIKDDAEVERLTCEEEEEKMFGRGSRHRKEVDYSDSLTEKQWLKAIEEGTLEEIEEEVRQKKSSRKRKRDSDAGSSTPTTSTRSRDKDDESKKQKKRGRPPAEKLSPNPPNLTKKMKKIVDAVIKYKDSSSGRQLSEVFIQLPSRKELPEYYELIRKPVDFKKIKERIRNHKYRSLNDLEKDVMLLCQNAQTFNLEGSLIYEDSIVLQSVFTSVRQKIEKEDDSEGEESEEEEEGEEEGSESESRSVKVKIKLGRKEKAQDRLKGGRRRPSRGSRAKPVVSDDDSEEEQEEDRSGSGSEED
Outline: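 Degradation calculated from NanoBiT luminescence relative to DMSO-treated cells (high) and cells given 2 μM known BRM/BRG1 degrader (low). HeLa cells stably expressing HiBiT-BRG1 plus LgBiT were exposed to compound for 24 h before lytic HiBiT detection.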

Compound | DC50 [1] | DC50 [2] | Dmax [2] | BRM HiBit Degradation Maximum (%) [1]
Cc1ncsc1-c1ccc([C@H](C)NC(=O)[C@@H]2C[C@@H](O)CN2C(=O)C(C(C)C)n2cc(N3CC4CCN(c5ccc6cc(-c7ccccc7O)nnc6c5)CC43)nn2)cc1 (stereo partly drawn) [Compound 249, (2S,4R)-4-hydroxy-1-(2-(4-(3-(3-(2-hydroxyphenyl)cinnolin-7-yl)-3,8-diazabicyclo[4.2.0]octan-8-yl)-1H-1,2,3-triazol-1-yl)-3-methylbutanoyl)-N-((S)-1-(4-(4-methylthiazol-5-yl)phenyl)ethyl)pyrrolidine-2-carboxamide] | > 10 nM | > 100 nM | > 75% | A (“A” indicates maximum degradation ≥75%)
Cc1ncsc1-c1ccc([C@H](C)NC(=O)[C@@H]2C[C@@H](O)CN2C(=O)[C@@H](c2cc(N3CCC(N4CC5(CN(Cc6ccc7nnc(-c8ccccc8O)cc7c6)C5)C4)CC3)no2)C(C)C)cc1 [Compound 256, (2S,4R)-4-hydroxy-1-((R)-2-(3-(4-(6-((3-(2-hydroxyphenyl)cinnolin-6-yl)methyl)-2,6-diazaspiro [3.3]heptan-2-yl)piperidin-1-yl)isoxazol-5-yl)-3-methylbutanoyl)-N-((S)-1-(4-(4-methylthiazol-5-yl)phenyl)ethyl)pyrrolidine-2-carboxamide] | > 100 nM | > 10 nM | > 75% | B (“B” indicates maximum degradation ≥50%)
Cc1ncsc1-c1ccc([C@@H](C)NC(=O)[C@H]2C[C@H](O)CN2C(=O)[C@H](C(C)C)n2cc(N3CC4(CN(c5ccc6nnc(-c7ccccc7O)cc6c5)C4)C3)cn2)cc1 [Compound 258, (2R,4S)-4-hydroxy-1-[(2S)-2-(4-{6-[3-(2-hydroxyphenyl)cinnolin-6-yl]-2,6-diazaspiro[3.3]heptan-2-yl}pyrazol-1-yl)-3-methylbutanoyl]-N-[(1R)-1-[4-(4-methyl-1,3-thiazol-5-yl)phenyl]ethyl]pyrrolidine-2-carboxamide] | > 10 nM | > 10 nM | > 50% | A (“A” indicates maximum degradation ≥75%)
Cc1ncsc1-c1ccc([C@H](C)NC(=O)[C@@H]2C[C@@H](O)CN2C(=O)C(C(C)C)n2cc(N3CCC(CN4CCN(c5ccc6cc(-c7ccccc7O)nnc6c5)CC4)CC3)nn2)cc1 (stereo partly drawn) [Compound 259, (2S,4R)-4-hydroxy-1-(2-(4-(4-((4-(3-(2-hydroxyphenyl)cinnolin-7-yl)piperazin-1-yl)methyl)piperidin-1-yl)-1H-1,2,3-triazol-1-yl)-3-methylbutanoyl)-N-((S)-1-(4-(4-methylthiazol-5-yl)phenyl)ethyl)pyrrolidine-2-carboxamide] | < 10 nM | > 10 nM | > 75% | A (“A” indicates maximum degradation ≥75%)
Cc1ncsc1-c1ccc([C@H](C)NC(=O)[C@@H]2C[C@@H](O)CN2C(=O)C(C(C)C)n2cc(N3CCN(CC4CCCN(c5ccc6cc(-c7ccccc7O)nnc6c5)C4)CC3)nn2)cc1 (stereo partly drawn) [Compound 260, (2S,4R)-4-hydroxy-1-(2-(4-(4-((1-(3-(2-hydroxyphenyl)cinnolin-7-yl)piperidin-3-yl)methyl)piperazin-1-yl)-1H-1,2,3-triazol-1-yl)-3-methylbutanoyl)-N-((S)-1-(4-(4-methylthiazol-5-yl)phenyl)ethyl)pyrrolidine-2-carboxamide] | > 10 nM | > 10 nM | > 75% | A (“A” indicates maximum degradation ≥75%)
Cc1ncsc1-c1ccc([C@H](C)NC(=O)[C@@H]2C[C@@H](O)CN2C(=O)C(C(C)C)n2cc(N3CCCC(CN4CCN(c5ccc6cc(-c7ccccc7O)nnc6c5)CC4)C3)nn2)cc1 (stereo partly drawn) [Compound 261, (2S,4R)-4-hydroxy-1-(2-(4-(3-((4-(3-(2-hydroxyphenyl)cinnolin-7-yl)piperazin-1-yl)methyl)piperidin-1-yl)-1H-1,2,3-triazol-1-yl)-3-methylbutanoyl)-N-((S)-1-(4-(4-methylthiazol-5-yl)phenyl)ethyl)pyrrolidine-2-carboxamide] | > 10 nM | > 10 nM | > 75% | A (“A” indicates maximum degradation ≥75%)
Cc1ncsc1-c1ccc([C@H](C)NC(=O)[C@@H]2C[C@@H](O)CN2C(=O)C(C(C)C)n2cc(N3CCC4(CCCN4c4ccc5cc(-c6ccccc6O)nnc5c4)C3)nn2)cc1 (stereo partly drawn) [Compound 262, (2S,4R)-4-hydroxy-1-(2-(4-(1-(3-(2-hydroxyphenyl)cinnolin-7-yl)-1,7-diazaspiro[4.4]nonan-7-yl)-1H-1,2,3-triazol-1-yl)-3-methylbutanoyl)-N-((S)-1-(4-(4-methylthiazol-5-yl)phenyl)ethyl)pyrrolidine-2-carboxamide] | > 100 nM | > 100 nM | > 50% | A (“A” indicates maximum degradation ≥75%)
Cc1ncsc1-c1ccc([C@H](C)NC(=O)[C@@H]2C[C@@H](O)CN2C(=O)C(C(C)C)n2cc(N3CCC4C(C3)CN4c3ccc4cc(-c5ccccc5O)nnc4c3)nn2)cc1 (stereo partly drawn) [Compound 263, (2S,4R)-4-hydroxy-1-(2-(4-(7-(3-(2-hydroxyphenyl)cinnolin-7-yl)-3,7-diazabicyclo[4.2.0]octan-3-yl)-1H-1,2,3-triazol-1-yl)-3-methylbutanoyl)-N-((S)-1-(4-(4-methylthiazol-5-yl)phenyl)ethyl)pyrrolidine-2-carboxamide] | > 10 nM | > 10 nM | > 75% | A (“A” indicates maximum degradation ≥75%)

The next lines start with results.

DC50 [1] | DC50 [2] | Dmax [2] | Compound | BRM HiBit Degradation Maximum (%) [1]
< 10 nM | < 10 nM | > 75% | Cc1ncsc1-c1ccc([C@H](C)NC(=O)[C@@H]2C[C@@H](O)CN2C(=O)C(C(C)C)n2cc(N3CC4CN(c5ccc6cc(-c7ccccc7O)nnc6c5)CCC43)nn2)cc1 (stereo partly drawn) [Compound 250, (2S,4R)-4-hydroxy-1-(2-(4-(3-(3-(2-hydroxyphenyl)cinnolin-7-yl)-3,7-diazabicyclo[4.2.0]octan-7-yl)-1H-1,2,3-triazol-1-yl)-3-methylbutanoyl)-N-((S)-1-(4-(4-methylthiazol-5-yl)phenyl)ethyl)pyrrolidine-2-carboxamide] | A (“A” indicates maximum degradation ≥75%)
< 10 nM | < 10 nM | > 75% | Cc1ncsc1-c1ccc([C@H](C)NC(=O)[C@@H]2C[C@@H](O)CN2C(=O)C(C(C)C)n2cc(N3CCCC4(CCN(c5ccc6cc(-c7ccccc7O)nnc6c5)CC4)C3)nn2)cc1 (stereo partly drawn) [Compound 251, (2S,4R)-4-hydroxy-1-(2-(4-(9-(3-(2-hydroxyphenyl)cinnolin-7-yl)-2,9-diazaspiro[5.5]undecan-2-yl)-1H-1,2,3-triazol-1-yl)-3-methylbutanoyl)-N-((S)-1-(4-(4-methylthiazol-5-yl)phenyl)ethyl)pyrrolidine-2-carboxamide] | A (“A” indicates maximum degradation ≥75%)
< 10 nM | < 10 nM | > 75% | Cc1ncsc1-c1ccc([C@H](C)NC(=O)[C@@H]2C[C@@H](O)CN2C(=O)[C@@H](c2cc(N3CC4(CC(c5cc6nnc(-c7ccccc7O)cc6cc5C5CC5)C4)C3)no2)C(C)C)cc1 [Compound 252, (2S,4R)-1-((R)-2-(3-(6-(6-cyclopropyl-3-(2-hydroxyphenyl)cinnolin-7-yl)-2-azaspiro[3.3]heptan-2-yl)isoxazol-5-yl)-3-methylbutanoyl)-4-hydroxy-N-((S)-1-(4-(4-methylthiazol-5-yl)phenyl)ethyl)pyrrolidine-2-carboxamide] | A (“A” indicates maximum degradation ≥75%)
< 10 nM | < 10 nM | > 75% | Cc1ncsc1-c1ccc([C@H](C)NC(=O)[C@@H]2C[C@@H](O)CN2C(=O)[C@@H](c2cc(N3CC4(C3)CN(c3cc5nnc(-c6ccccc6O)cc5cc3OC3CC3)C4)no2)C(C)C)cc1 [Compound 253, (2S,4R)-1-((R)-2-(3-(6-(6-cyclopropoxy-3-(2-hydroxyphenyl)cinnolin-7-yl)-2,6-diazaspiro[3.3]heptan-2-yl)isoxazol-5-yl)-3-methylbutanoyl)-4-hydroxy-N-((S)-1-(4-(4-methylthiazol-5-yl)phenyl)ethyl)pyrrolidine-2-carboxamide] | A (“A” indicates maximum degradation ≥75%)
< 10 nM |  | < 50% | C#Cc1ccc([C@H](C)NC(=O)[C@@H]2C[C@@H](O)CN2C(=O)[C@H](C(C)C)n2cc(N3CC4(CN(c5ccc6cc(-c7ccccc7O)nnc6c5)C4)C3)nn2)cc1 [Compound 254, (2S,4R)-N-((S)-1-(4-ethynylphenyl)ethyl)-4-hydroxy-1-((S)-2-(4-(6-(3-(2-hydroxyphenyl)cinnolin-7-yl)-2,6-diazaspiro[3.3]heptan-2-yl)-1H-1,2,3-triazol-1-yl)-3-methylbutanoyl)pyrrolidine-2-carboxamide] | A (“A” indicates maximum degradation ≥75%)
< 10 nM |  | < 50% | C#Cc1ccc(CNC(=O)[C@@H]2C[C@@H](O)CN2C(=O)[C@H](C(C)C)n2cc(N3CC4(CN(c5ccc6cc(-c7ccccc7O)nnc6c5)C4)C3)nn2)cc1 [Compound 255, (2S,4R)-N-(4-ethynylbenzyl)-4-hydroxy-1-((S)-2-(4-(6-(3-(2-hydroxyphenyl)cinnolin-7-yl)-2,6-diazaspiro[3.3]heptan-2-yl)-1H-1,2,3-triazol-1-yl)-3-methylbutanoyl)pyrrolidine-2-carboxamide] | A (“A” indicates maximum degradation ≥75%)
